Reference: patent publication US5849751A, “Amides and sulphonamides of benzylamines having heterocyclic substituents” (Bayer Aktiengesellschaft, priority 1995, dated 1998)

Tested on: release of apoB-100-associated lipoproteins from liver cells (HepG2)
Experiment: Inhibition of the release of apoB-100-associated lipoproteins (HepG2 cells, immunoassay)
Assay type: cell-based
Conditions: Homo sapiens; HepG2 culture supernatant, anti-LDL immunoassay, light absorption at 450 nm vs solvent control
Procedure: 1. Inhibition of the release of apoB-100-associated lipoproteins
The test for detection of the inhibition of the release of apoB-100-associated lipoproteins from liver cells was carried out in vitro with cultured liver cells, preferably with cells of the human line HepG2. These cells are cultured under standard conditions in a medium for the culture of eukaryotic cells, preferably in RPMI 1640 with 10% foetal calf serum. HepG2 cells synthesize and secrete into the culture supernatant apoB-100-associated lipoprotein particles, which in principle are similar in structure to the VLDL and LDL particles to be found in plasma.
These particles can be detected with an immunoassay for human LDL. This immunoassay is carried out with antibodies which had been induced in the rabbit against human LDL under standard conditions. The anti-LDL antibodies (rab-anti-LDL- ab) were purified by affinity chromatography on an immunosorbent with human LDL. These purified rab-anti-LDL-ab are adsorbed onto the surface of a plastic. This adsorption is expediently carried out onto the plastic surface of microtitre plates with 96 wells, preferably on MaxiSorp plates. If apoB-100-associated particles are present in the supernatant of Hep-G2 cells, these can bind to the insolubilized rab-anti-LDL-ab, and an immune complex bonded to the plastic surface is formed. Non-bound proteins are removed by washing. The immune complex on the plastic surface is detected with monoclonal antibodies which have been induced against human LDL and purified under standard conditions. These antibodies were conjugated with the enzyme peroxidase. Peroxidase converts the colourless substrate TMB into a coloured product in the presence of H2 O2. After acidification of the reaction mixture with H2 SO4, the specific adsorption of light at 450 nm is determined, this being a measure of the amount of apoB-100-associated particles which have been secreted into the culture supernatant by the HepG2 cells.
The IC50 value indicates the concentration of substance at which the adsorption of light is inhibited by 50% compared with the control (solvent control without substance).

Structure (SMILES) | IC50 [nM]
COc1ccc(CC(=O)NC(c2ccc(Cn3c4ccccc4c4c(C)cc(C)nc43)cc2)C2CCCC2)cc1 (stereo not drawn) [Example 5] | 38
Cc1cc(C)c2c3ccccc3n(Cc3ccc(C(N)C4CCCC4)cc3)c2n1 (racemic) [Example 1, 9-{4-[1-(R,S1-Amino-1-cyclopentyl-methyl]phenyl-methyl}-2,4-dimethyl-(α-carboline] | > 2000
Cc1cc(C)c2c3ccccc3n(Cc3ccc(C(NS(=O)(=O)Cc4ccccc4)C4CCCC4)cc3)c2n1 (stereo not drawn) [Example 3] | 460
Cc1cc(C)c2c3ccccc3n(Cc3ccc(C(NC(=O)Cc4ccccc4)C4CCCC4)cc3)c2n1 (stereo not drawn) [Example 4] | 34
Cc1cc(C)c2c3ccccc3n(Cc3ccc(C(NC(=O)C(O)c4ccccc4)C4CCCC4)cc3)c2n1 (racemic) [Example 18, 9-{4-[1-(R,S)-1-(2-(R,S)-2-Phenyl-2-hydroxy-acetyl)amino-1-cyclopentyl-methyl]phenyl-methyl}-2,4-dimethyl-α-carboline] | 39
Cc1cc(C)c2c3ccccc3n(Cc3ccc(C(NC(=O)C(=NO)c4ccccc4)C4CCCC4)cc3)c2n1 (racemic) [Example 24, 9-{4-[1-(R,S)-1-(2-(E,Z)-2-hydroxyimino-2-phenyl-acetyl)amino-1-cyclopentyl-methyl]phenyl-methyl}-2,4-dimethyl-α-carboline] | 300
